Data on 17 molecules can be found in patent US8044079B2, “Substituted oxindole derivatives, medicaments containing said derivatives and use thereof” (Abbott GmbH & Co. KG, priority 2005, dated 2011).

The term Ki denotes the equilibrium dissociation constant of an inhibitor or competing ligand from its target. Low values mean tighter binding, high ones weaker binding.

In this assay the target is T1, human vasopressin V1b receptor (Homo sapiens, UniProt P47901).
T1 construct: expressed in transfected cells; host or cells: CHO-K1 (cell line hV1b_3H2_CHO), membrane preparation
T1 sequence (P47901 1-424): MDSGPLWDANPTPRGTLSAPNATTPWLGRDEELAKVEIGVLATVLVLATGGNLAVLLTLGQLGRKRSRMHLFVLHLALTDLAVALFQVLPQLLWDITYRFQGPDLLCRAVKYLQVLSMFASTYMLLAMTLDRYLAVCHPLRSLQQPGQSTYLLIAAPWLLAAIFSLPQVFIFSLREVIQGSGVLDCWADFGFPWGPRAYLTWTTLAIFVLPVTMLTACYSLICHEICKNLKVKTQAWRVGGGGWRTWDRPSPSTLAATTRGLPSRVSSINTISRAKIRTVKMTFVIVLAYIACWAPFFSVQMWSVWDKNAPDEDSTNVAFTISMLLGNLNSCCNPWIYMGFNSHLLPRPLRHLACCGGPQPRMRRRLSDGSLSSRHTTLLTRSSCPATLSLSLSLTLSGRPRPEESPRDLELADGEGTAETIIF
Nature of the assay: Vasopressin V1b receptor binding test. The settings on record: membranes of CHO-K1 cells with human V1b receptor, displacement of 1.5 nM 3H-AVP; for compounds with more than one stereogenic center the diastereomer with greater affinity. A digest of the protocol: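 Affinity constants (Ki) came from nonlinear regression of triplicate scintillation counts after filtration separated bound from free radioligand. Compounds competed at human V1b membranes for 60 min, room temperature, in pH 7.4 tris/MgCl2/BSA buffer with 2% DMSO; 1 μM AVP defined nonspecific binding.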

The molecule `COc1ccc(S(=O)(=O)N2C(=O)C(c3cccc(CN4CCN(C)CC4)c3OC)(N3CCC[C@H]3c3ncco3)c3cc(Cl)ccc32)cc1` (stereo partly drawn) [Example 192, 5-Chloro-1-(4-methoxybenzenesulfonyl)-3-[2-methoxy-3-(4-methylpiperazin-1-ylmethyl)phenyl]-3-((S)-2-oxazol-2-yl-pyrrolidin-1-yl)-1,3-dihydroindol-2-one] had a Ki of under 10 nM. Take `CCN1CCN(Cc2ccc(C3(N4CCC[C@H]4c4ncco4)C(=O)N(S(=O)(=O)c4ccc(OC)cc4)c4cc(F)c(Cl)cc43)c(OC)c2)CC1` (stereo partly drawn) [Example 193, 5-Chloro-3-[4-(4-ethylpiperazin-1-ylmethyl)-2-methoxyphenyl]-6-fluoro-1-(4-methoxybenzenesulfonyl)-3-((S)-2-oxazol-2-yl-pyrrolidin-1-yl)-1,3-dihydroindol-2-one]: the Ki is under 10 nM. As for `COc1ccc(S(=O)(=O)N2C(=O)C(c3cccc(CN(C)C)c3OC)(N3CCC[C@H]3c3ncco3)c3cc(Cl)ccc32)cc1` (stereo partly drawn) [Example 194, 5-Chloro-3-(3-dimethylaminomethyl-2-methoxyphenyl)-1-(4-methoxybenzenesulfonyl)-3-((S)-2-oxazol-2-yl-pyrrolidin-1-yl)-1,3-dihydroindol-2-one], the figure is 10 to 100 nM; as for `COc1ccc(S(=O)(=O)N2C(=O)C(c3cccc(CN4CCCC4)c3OC)(N3CCC[C@H]3c3ncco3)c3cc(Cl)ccc32)cc1` (stereo partly drawn) [Example 195, 5-Chloro-1-(4-methoxybenzenesulfonyl)-3-(2-methoxy-3-pyrrolidin-1-ylmethylphenyl)-3-((S)-2-oxazol-2-yl-pyrrolidin-1-yl)-1,3-dihydroindol-2-one], 100 to 1000 nM; as for `COc1cc(CN2CCN(CCO)CC2)ccc1C1(N2CCC[C@H]2c2ncco2)C(=O)N(S(=O)(=O)c2ccc(C#N)cc2)c2ccc(Cl)cc21` (stereo partly drawn) [Example 197, 5-Chloro-1-(4-cyanobenzenesulfonyl)-3-{4-[4-(2-hydroxyethyl)piperazin-1-ylmethyl]-2-methoxyphenyl}-3-((S)-2-oxazol-2-yl-pyrrolidin-1-yl)-2,3-dihydroindol-2-one], 10 to 100 nM. Take `COc1ccc(S(=O)(=O)N2C(=O)C(c3cc(CN4CCN(C)CC4)ccc3OC)(N3CCC[C@H]3c3ncco3)c3cc(Cl)c(F)cc32)cc1` (stereo partly drawn) [Example 198, 5-Chloro-6-fluoro-1-(4-methoxybenzenesulfonyl)-3-[2-methoxy-5-(4-methylpiperazin-1-ylmethyl)phenyl]-3-((S)-2-oxazol-2-yl-pyrrolidin-1-yl)-1,3-dihydroindol-2-one]: the Ki was under 10 nM. In turn, `CCN1CCN(Cc2ccc(C3(N4CCC[C@H]4c4ncco4)C(=O)N(S(=O)(=O)c4ccc(OC)cc4)c4ccc(Cl)c(F)c43)c(OC)c2)CC1` (stereo partly drawn) [Example 199, 5-Chloro-3-[4-(4-ethylpiperazin-1-ylmethyl)-2-methoxyphenyl]-4-fluoro-1-(4-methoxybenzenesulfonyl)-3-((S)-2-oxazol-2-yl-pyrrolidin-1-yl)-1,3-dihydroindol-2-one] registered a Ki of under 10 nM. The same measure for `COc1ccc(S(=O)(=O)N2C(=O)C(c3cc(CN4CCNCC4)ccc3OC)(N3CCC[C@H]3c3ncco3)c3cc(Cl)c(F)cc32)cc1` (stereo partly drawn) [Example 200, 5-Chloro-6-fluoro-1-(4-methoxybenzenesulfonyl)-3-(2-methoxy-5-piperazin-1-ylmethylphenyl)-3-((S)-2-oxazol-2-yl-pyrrolidin-1-yl)-1,3-dihydroindol-2-one]: under 10 nM; for `COc1ccc(S(=O)(=O)N2C(=O)C(c3ccc(CN4CCN(C)CC4)cc3OC)(N3CCC[C@H]3c3ncco3)c3cc(Cl)c(F)cc32)cc1` (stereo partly drawn) [Example 201, 5-Chloro-6-fluoro-1-(4-methoxybenzenesulfonyl)-3-[2-methoxy-4-(4-methylpiperazin-1-ylmethyl)phenyl]-3-((S)-2-oxazol-2-yl-pyrrolidin-1-yl)-1,3-dihydroindol-2-one]: under 10 nM; for `CCOc1ccc(CN2CCN(C)CC2)cc1C1(N2CCC[C@H]2c2ncco2)C(=O)N(S(=O)(=O)c2ccc(OC)cc2)c2ccc(Cl)cc21` (stereo partly drawn) [Example 202, 5-Chloro-3-[2-ethoxy-5-(4-methylpiperazin-1-ylmethyl)phenyl]-1-(4-methoxybenzenesulfonyl)-3-((S)-2-oxazol-2-yl-pyrrolidin-1-yl)-1,3-dihydroindol-2-one]: 10 to 100 nM. As for `CCOc1ccc(CNC)cc1C1(N2CCC[C@H]2c2ncco2)C(=O)N(S(=O)(=O)c2ccc(OC)cc2)c2ccc(Cl)cc21` (stereo partly drawn) [Example 203, 5-Chloro-3-(2-ethoxy-5-methylaminomethylphenyl)-1-(4-methoxybenzenesulfonyl)-3-((S)-2-oxazol-2-yl-pyrrolidin-1-yl)-1,3-dihydroindol-2-one], the figure is 10 to 100 nM. The molecule `CCOc1ccc(CN(C)C)cc1C1(N2CCC[C@H]2c2ncco2)C(=O)N(S(=O)(=O)c2ccc(OC)cc2)c2ccc(Cl)cc21` (stereo partly drawn) [Example 204, 5-Chloro-3-(5-dimethylaminomethyl-2-ethoxyphenyl)-1-(4-methoxybenzenesulfonyl)-3-((S)-2-oxazol-2-yl-pyrrolidin-1-yl)-1,3-dihydroindol-2-one] had an inhibitory constant (Ki) of 10 to 100 nM.

For `CCOc1ccc(CNC(C)C)cc1C1(N2CCC[C@H]2c2ncco2)C(=O)N(S(=O)(=O)c2ccc(OC)cc2)c2ccc(Cl)cc21` (stereo partly drawn) [Example 205, 5-Chloro-3-[2-ethoxy-5-(isopropylaminomethyl)phenyl]-1-(4-methoxybenzenesulfonyl)-3-((S)-2-oxazol-2-yl-pyrrolidin-1-yl)-1,3-dihydroindol-2-one], the Ki fell in the range of 10 to 100 nM. `CCNCc1ccc(OCC)c(C2(N3CCC[C@H]3c3ncco3)C(=O)N(S(=O)(=O)c3ccc(OC)cc3)c3ccc(Cl)cc32)c1` (stereo partly drawn) [Example 206, 5-Chloro-3-(2-ethoxy-5-ethylaminomethylphenyl)-1-(4-methoxybenzenesulfonyl)-3-((S)-2-oxazol-2-yl-pyrrolidin-1-yl)-1,3-dihydroindol-2-one] showed a Ki of 10 to 100 nM. The same measure for `COc1ccc(S(=O)(=O)N2C(=O)C(c3cc(CN4CCN(C)CC4)ccc3OC)(N3CCC[C@H]3c3ncon3)c3cc(Cl)ccc32)cc1` (stereo partly drawn) [Example 207, 5-Chloro-1-(4-methoxybenzenesulfonyl)-3-[2-methoxy-5-(4-methylpiperazin-1-ylmethyl)phenyl]-3-((S)-2-[1,2,4]oxadiazol-3-yl-pyrrolidin-1-yl)-1,3-dihydroindol-2-one]: under 10 nM. The molecule `COc1ccc(S(=O)(=O)N2C(=O)C(c3cc(CN4CCNCC4)ccc3OC)(N3CCC[C@H]3c3ncon3)c3cc(Cl)ccc32)cc1` (stereo partly drawn) [Example 208, 5-Chloro-1-(4-methoxybenzenesulfonyl)-3-(2-methoxy-5-piperazin-1-ylmethylphenyl)-3-((S)-2-[1,2,4]oxadiazol-3-yl-pyrrolidin-1-yl)-1,3-dihydroindol-2-one] displayed a Ki of 10 to 100 nM. The same measure for `COc1ccc(S(=O)(=O)N2C(=O)C(c3cc(CN(C)C)ccc3OC)(N3CCC[C@H]3c3ncon3)c3cc(Cl)ccc32)cc1` (stereo partly drawn) [Example 209, 5-Chloro-3-(5-dimethylaminomethyl-2-methoxyphenyl)-1-(4-methoxybenzenesulfonyl)-3-((S)-2-[1,2,4]oxadiazol-3-yl-pyrrolidin-1-yl)-1,3-dihydroindol-2-one]: under 10 nM.
